A word on the GI50: it is the concentration giving 50% growth inhibition.

Counter-ions that a name gives are not always drawn. Like-named read-outs stand apart in the source and are kept apart here.

From patent US20200190062A1, “HETEROCYCLIC COMPOUND AND PHARMACEUTICAL COMPOSITION COMPRISING SAME” (BEYONDBIO INC., priority 2015, published 2020) come the findings set out here.

One data set has as its system SK-N-SH. The experiment in a line: Inhibition of cancer cell proliferation (MTT). The format is cell-based, human. In outline: (§1)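 Cells were seeded at 3000/well (A549, SK-N-SH and SH-SY5Y in DMEM, NCI-H23 in […], all with 10% FBS), allowed to attach for 16 h, then exposed to compounds at 0.004–10 uM for 72 h at 37 °C. MTT formazan was read at 535 nm, and GI50 was calculated relative to 0.08% DMSO controls.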

Another data set deals with SH-SY5Y. Description: Inhibition of cancer cell proliferation (MTT). The format is cell-based, human. In outline:
as §1

In a further data set the test system is HCT116. Description: Inhibition of cancer cell proliferation (MTT). The format is cell-based, human.
The next data set concerns U-87MG. Description: Inhibition of cancer cell proliferation (MTT). The format is cell-based, human. In outline: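 Plate 3000 cells/well and let them adhere for 16 h. Add compound (0.004, 0.013, 0.04, 0.12, 0.37, 1.1, 3.3, 10 uM; 0.08% DMSO) and culture for 72 h. Add MTT for 2 h, dissolve formazan in DMSO, read at 535 nm, and fit GI50.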
In a further data set the test system is Tau protein. Description: Inhibition of Tau phosphorylation (Western blot, pSer202) in SH-SY5Y cells. The format is cell-based. Conditions: 4 hrs. As to the method:
SH-SY5Y cells expressing Tau protein were cultured in DMEM containing 10% FBS. 2.5×10^6 cells were placed in a 6-well plate and incubated at 5% CO2 and 37° C. for 16 hrs. The compounds obtained in the above Examples serially diluted ⅓ from 3 uM to 0.5 nM or the compounds in a concentration of 0.3, 0.1, 0.03, 0.01, 0.003 uM were treated for 4 hrs in DMEM containing 5% FBS. After 4 hrs, the culture solution was removed, washed with PBS, and cells were lysed by adding 100 ul of lysis buffer. The lysis buffer consisted of 50 mM Tris-HCl (pH 7.5), 150 mM NaCl, 5 mM EDT, 1 mM EGTA, 50 mM NaF, 1 mM PMSF, 1 mM Na3VO4, 2.5 mM DTT, 1% Triton X-100, and Protease inhibitor (Pierce). The lysed cells were centrifuged at 10,000 rpm and 4° C. for 10 min and the proteins in the supernatant were quantified. 25 ug of the proteins were electrophoresed on a SDS-PAGE gel and transferred to PVDF (Amersharm) membrane. The PVDF membrane was immersed in T-PBS containing 10% skim milk and shaken for 1 hr at room temperature. The primary antibody, Phosph-Tau[pSer202] (Abcam), diluted 1:1500 in T-PBS solution containing 5% skim milk was reacted with the membrane at room temperature for 2 hrs. The membrane was washed with T-PBS. The secondary antibody, Anti-rabbit IgG HRP, diluted 1:5000 was added to the membrane, reacted at room temperature for 1 hr, and washed.

Data set [1] can be described thus: Blood brain barrier permeation. The format is in vivo, ICR mice. Conditions: male, ICR, mouse, po; for Kp at 1 h / Kp at 4 h: brain/plasma, read-out: B/P ratio. As to the method: Using 9-week-old male ICR mice, the compounds obtained in the above Examples were orally administered once at a dose of 10 mg/kg or 30 mg/kg, and after 1 hr and 4 hrs, the concentrations of the compounds in the blood and brain of the mice were determined. 3 ICR mice were assigned in each group. Plasma was separated from the blood obtained after sacrificing the mice at each time, the brain of the mice was extracted, and the […] was washed with PBS, followed by pulverizing the brain tissue. The blood was placed in a test tube containing heparin to prevent coagulation and then was centrifuged at 12,000 rpm at 4° C. for 3 min to give a supernatant from which plasma was collected. Brain tissue was weighed, and the brain was pulverized using Dounce's homogenizer after adding 3 times as much volume of PBS as the brain weight. Each of the obtained analytical samples was quantitatively analyzed using a tandem liquid chromatography-mass spectrometer (Tandem LC/MS/MS, API3000 & Agilent 1100 series). Brain permeability of a compound is expressed as a value obtained by dividing the concentration of the compound in the brain by the concentration of the compound in the plasma (B/P ratio), and when the B/P ratio is greater than 1, it means that the concentration in the brain is higher than the one in the blood.

The mark [2] stands for this setting: brain, 10 mg/kg, oral once 10 mg/kg, read-out: Concentration in the brain.
Where [3] appears, read: brain, 30 mg/kg, oral once 30 mg/kg, read-out: Concentration in the brain.
[4] abbreviates: plasma, 10 mg/kg, oral once 10 mg/kg, read-out: Concentration in the plasma.
Where [5] appears, read: plasma, 30 mg/kg, oral once 30 mg/kg, read-out: Concentration in the plasma.

As for `Nc1nccc(-c2ccc(O)c(-c3ccnc(N)n3)n2)n1` [Example 1, 2,6-bis(2-aminopyrimidin-4-yl)pyridin-3-ol], the GI50 in the data set with SK-N-SH (Homo sapiens, SK-N-SH, 72 h) worked out at 280 nM; with SH-SY5Y (Homo sapiens, SH-SY5Y, 72 h), 150 nM; with HCT116 (72 hrs), 150 nM; with U-87MG (Homo sapiens, U-87 MG, 72 h), 850 nM. For the same compound, the “Phosphorylation (%) of Tau” value is 88% with Tau protein (0.012 uM); 92% in the data set with Tau protein (0.037 uM); 51% in the data set with Tau protein (0.11 uM); 28% in the data set on Tau protein (0.33 uM); 30% in the data set on Tau protein (1 uM); 25% in the data set with Tau protein (3 uM).

In the case of `Nc1nccc(-c2ccc(O)c(-c3ccnc(N)n3)n2)n1` [Example 61, 2,6-bis(2-aminopyrimidin-4-yl)pyridin-3-ol 3hydrochloride], it took 90 nM to inhibit growth in the data set on HCT116 (72 hrs) by half (GI50). Besides, the concentration at 1 h in data set [1] (setting [2]) was found to be 296 ng/g; in data set [1] (setting [3]), 768 ng/g; in data set [1] (setting [4]) it was 283 ng/mL; in data set [1] (setting [5]), 278 ng/mL. Moreover, the concentration at 4 h in data set [1] (setting [2]) came out at 90.3 ng/g; in data set [1] (setting [3]) it was 577 ng/g; in data set [1] (setting [4]), 86.5 ng/mL; in data set [1] (setting [5]) it was 129 ng/mL. Further, the Kp at 1 h in data set [1] (10 mg/kg, oral once 10 mg/kg) is 1.05; in data set [1] (30 mg/kg, oral once 30 mg/kg), 2.76. In addition, the Kp at 4 h stood at 1.04 in data set [1] (10 mg/kg, oral once 10 mg/kg) and 4.49 in data set [1] (30 mg/kg, oral once 30 mg/kg).

As to `Nc1nccc(-c2nc(-c3ccnc(N)c3F)ccc2O)n1` [Example 8], the GI50 in the data set on SK-N-SH (72 hrs) stood at 10 nM; in the data set on SH-SY5Y (72 hrs), 10 nM; in the data set on HCT116 (72 hrs), 10 nM; in the data set on U-87MG (72 hrs), 60 nM. Also, the “Phosphorylation (%) of Tau” value in the data set with Tau protein (0.0005 uM) came to 40%; with Tau protein (0.0014 uM), 43%; in the data set on Tau protein (0.0041 uM), 23%; with Tau protein (0.012 uM) it was 0%; in the data set with Tau protein (0.037 uM) it was 0%; in the data set with Tau protein (0.11 uM), 0%. For the same compound, the concentration at 1 h in data set [1] (setting [3]) stood at 144 ng/g; in data set [1] (setting [5]), 94.3 ng/mL. Moreover, the concentration at 4 h in data set [1] (setting [3]) came out at 70.9 ng/g; in data set [1] (setting [5]) it was 29.4 ng/mL. The Kp at 1 h in data set [1] (30 mg/kg, oral once 30 mg/kg) is 1.53. For the same compound, the Kp at 4 h in data set [1] (30 mg/kg, oral once 30 mg/kg) stood at 2.41.

Regarding `Nc1cc(-c2ccc(O)c(-c3ccnc(N)n3)n2)ccn1` [Example 10, 2′-amino-6-(2-aminopyrimidin-4-yl)-[2,4′-bipyridin]-5-ol], the GI50 with SK-N-SH (Homo sapiens, SK-N-SH, 72 h) is 240 nM; in the data set with SH-SY5Y (Homo sapiens, SH-SY5Y, 72 h) it was 110 nM; in the data set on HCT116 (Homo sapiens, HCT-116, 72 h), 260 nM; with U-87MG (Homo sapiens, U-87 MG, 72 h) it was 380 nM. Also, the “Phosphorylation (%) of Tau” value came out at 101% with Tau protein (0.012 uM); 84% in the data set on Tau protein (0.037 uM); 60% in the data set on Tau protein (0.11 uM); 39% in the data set with Tau protein (0.33 uM); 11% with Tau protein (1 uM); 13% in the data set with Tau protein (3 uM). Further, the concentration at 1 h in data set [1] (setting [3]) was 129 ng/g; in data set [1] (setting [5]), 82.6 ng/mL. In addition, the values for the concentration at 4 h in data set [1] (setting [3]) and in data set [1] (setting [5]) were 23.2 ng/g and 8.3 ng/mL, respectively. In addition, the Kp at 1 h in data set [1] (30 mg/kg, oral once 30 mg/kg) worked out at 1.56. Also, the Kp at 4 h in data set [1] (30 mg/kg, oral once 30 mg/kg) was found to be 2.78.

`Cc1cc(-c2nc(-c3ccnc(N)c3F)ccc2O)nc(N)n1` [Example 71, 2′-amino-6-(2-amino-6-methylpyrimidin-4-yl)-3′-fluoro-[2,4′-bipyridin]-5-ol 3hydrochloride]: the GI50 in the data set with HCT116 (72 hrs) was found to be 10 nM; with U-87MG (Homo sapiens, U-87 MG, 72 h), 10 nM. Also, the “Phosphorylation (%) of Tau” value is 110% in the data set on Tau protein (0.003 uM), 101% in the data set with Tau protein (0.01 uM), 35% in the data set on Tau protein (0.03 uM) and 26% in the data set on Tau protein (0.1 uM). Besides, the concentration at 1 h in data set [1] (setting [2]) was 3120 ng/g; in data set [1] (setting [4]) it was 1380 ng/mL. Moreover, the concentration at 4 h in data set [1] (setting [2]) was found to be 165 ng/g; in data set [1] (setting [4]), 52.1 ng/mL. The Kp at 1 h in data set [1] (10 mg/kg, oral once 10 mg/kg) was found to be 2.26. In addition, in data set [1] (10 mg/kg, oral once 10 mg/kg), the Kp at 4 h came out at 3.18.
